According to the supplement of paper PMC4723716:
Counter-ions that a name gives are not always drawn.

Tested on: Plasmodium falciparum NF54 gametocytes
Conditions: 384, incubation time: 72 h
Experimental: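 Known antimalarials and MMV control compounds in dose response against each stage (I–V) […] The fitted EC50 is reported as IC50 in µM; '>' marks the top dose reached without a curve.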

[1] = gametocyte stage: Stage I Dose Response IC50 (µM), assay protocol: SaLSSA
[2] = gametocyte stage: Stage II Dose Response IC50 (µM), assay protocol: SaLSSA
[3] = gametocyte stage: Stage III Dose Response IC50 (µM), assay protocol: SaLSSA
[4] = gametocyte stage: Stage IV Dose Response IC50 (µM), assay protocol: SaLSSA
[5] = gametocyte stage: Stage V Dose Response IC50 (µM), assay protocol: SaLSSA
[6] = gametocyte stage: Stage I Dose Response IC50 (µM), assay protocol: TSSA
[7] = gametocyte stage: Stage II Dose Response IC50 (µM), assay protocol: TSSA
[8] = gametocyte stage: Stage III Dose Response IC50 (µM), assay protocol: TSSA
[9] = gametocyte stage: Stage IV Dose Response IC50 (µM), assay protocol: TSSA
[10] = gametocyte stage: Stage V Dose Response IC50 (µM), assay protocol: TSSA

C[C@@H]1CC[C@H]2[C@@H](C)C(=O)O[C@@H]3O[C@@]4(C)CC[C@@H]1[C@]32OO4 [Artemisinin]
IC50 of gametocyte viability [1]: 0.0243 µM | IC50 of gametocyte viability [2]: 0.0204 µM | IC50 of gametocyte viability [3]: 0.0118 µM | IC50 of gametocyte viability [4]: 0.0373 µM | IC50 of gametocyte viability [5]: > 12.5 µM

C[C@H]1[C@@H](O)O[C@@H]2O[C@@]3(C)CC[C@H]4[C@H](C)CC[C@@H]1[C@@]24OO3 [Artenimol (Dihydro artemisinin)]
IC50 of gametocyte viability [1]: 0.00579 µM | IC50 of gametocyte viability [2]: 0.0027 µM | IC50 of gametocyte viability [3]: 0.00674 µM | IC50 of gametocyte viability [4]: 0.0207 µM | IC50 of gametocyte viability [5]: > 12.5 µM

CC1(C)N=C(N)N=C(N)N1c1ccc(Cl)cc1 [Cycloguanil]
IC50 of gametocyte viability [1]: > 12.5 µM | IC50 of gametocyte viability [2]: > 12.5 µM | IC50 of gametocyte viability [3]: > 12.5 µM | IC50 of gametocyte viability [4]: > 12.5 µM | IC50 of gametocyte viability [5]: > 12.5 µM

Nc1ccc(S(=O)(=O)Nc2ncccn2)cc1 [Sulfadiazine]
IC50 of gametocyte viability [1]: > 12.5 µM | IC50 of gametocyte viability [2]: > 12.5 µM | IC50 of gametocyte viability [3]: > 12.5 µM | IC50 of gametocyte viability [4]: > 12.5 µM | IC50 of gametocyte viability [5]: > 12.5 µM

C=C[C@H]1CN2CC[C@H]1C[C@H]2[C@H](O)c1ccnc2ccc(OC)cc12 [Quinine sulfate dihydrate (coeff. 2)]
IC50 of gametocyte viability [6]: 0.918 µM | IC50 of gametocyte viability [7]: 0.767 µM | IC50 of gametocyte viability [8]: 1.58 µM | IC50 of gametocyte viability [9]: > 12.5 µM | IC50 of gametocyte viability [10]: > 12.5 µM

COc1cc(N[C@H](C)CCCN)c2nccc(C)c2c1Oc1ccc(Cl)c(Cl)c1 [NPC-1161B]
IC50 of gametocyte viability [1]: 2 µM | IC50 of gametocyte viability [2]: 2.02 µM | IC50 of gametocyte viability [3]: 3.51 µM | IC50 of gametocyte viability [4]: 3.6 µM | IC50 of gametocyte viability [5]: 2.86 µM

C=C[C@H]1CN2CC[C@H]1C[C@@H]2[C@@H](O)c1ccnc2ccc(OC)cc12 [Quinidine]
IC50 of gametocyte viability [6]: 0.18 µM | IC50 of gametocyte viability [7]: 0.275 µM | IC50 of gametocyte viability [8]: 2.83 µM | IC50 of gametocyte viability [9]: > 12.5 µM | IC50 of gametocyte viability [10]: > 12.5 µM

Cc1cc(NS(=O)(=O)c2ccc(N)cc2)no1 [Sulfamethoxazole]
IC50 of gametocyte viability [1]: > 12.5 µM | IC50 of gametocyte viability [2]: > 12.5 µM | IC50 of gametocyte viability [3]: > 12.5 µM | IC50 of gametocyte viability [4]: > 12.5 µM | IC50 of gametocyte viability [5]: > 12.5 µM

CCN(CC)CCCNc1ccnc2cc(Cl)ccc12 [AQ-13]
IC50 of gametocyte viability [1]: 0.0426 µM | IC50 of gametocyte viability [2]: 0.0335 µM | IC50 of gametocyte viability [3]: 0.484 µM | IC50 of gametocyte viability [4]: 6.47 µM | IC50 of gametocyte viability [5]: 6.05 µM

CN(C)[C@@H]1C(O)=C(C(N)=O)C(=O)[C@@]2(O)C(O)=C3C(=O)c4c(O)cccc4[C@@](C)(O)[C@H]3C[C@@H]12 [Tetracycline]
IC50 of gametocyte viability [1]: > 12.5 µM | IC50 of gametocyte viability [2]: > 12.5 µM | IC50 of gametocyte viability [3]: > 12.5 µM | IC50 of gametocyte viability [4]: > 12.5 µM | IC50 of gametocyte viability [5]: > 12.5 µM

O[C@@H](c1cc(C(F)(F)F)nc2c(C(F)(F)F)cccc12)[C@H]1CCCCN1 [Mefloquine (+ RS)]
IC50 of gametocyte viability [1]: 0.0379 µM | IC50 of gametocyte viability [2]: 0.039 µM | IC50 of gametocyte viability [3]: 0.078 µM | IC50 of gametocyte viability [4]: 0.579 µM | IC50 of gametocyte viability [5]: 0.158 µM

CN(C(=O)c1cn2c(-c3ccc(C#N)cc3)cnc2cn1)c1ccc(C(F)(F)F)cc1 [KAI407]
IC50 of gametocyte viability [1]: 0.593 µM | IC50 of gametocyte viability [2]: 0.636 µM | IC50 of gametocyte viability [3]: 0.415 µM | IC50 of gametocyte viability [4]: 0.329 µM | IC50 of gametocyte viability [5]: 0.156 µM

C[C@@H]1C[C@@H]([C@H](O)CC2CC(=O)NC(=O)C2)C(=O)[C@@H](C)C1 [Cycloheximide]
IC50 of gametocyte viability [6]: 1.23 µM | IC50 of gametocyte viability [7]: 2.46 µM | IC50 of gametocyte viability [8]: 2.51 µM | IC50 of gametocyte viability [9]: 1.92 µM | IC50 of gametocyte viability [10]: 4.62 µM

OC(c1cc(C(F)(F)F)nc2c(C(F)(F)F)cccc12)C1CCCCN1 (stereo not given) [Mefloquine (+ RS)]
IC50 of gametocyte viability [6]: 0.0512 µM | IC50 of gametocyte viability [7]: 0.0471 µM | IC50 of gametocyte viability [8]: 0.0585 µM | IC50 of gametocyte viability [9]: 1.64 µM | IC50 of gametocyte viability [10]: 6.34 µM

Cc1cc2nc3c(=O)[nH]c(=O)nc-3n(C[C@H](O)[C@H](O)[C@H](O)CO)c2cc1C [Flavin mononucleotid (Riboflavin)]
IC50 of gametocyte viability [1]: > 12.5 µM | IC50 of gametocyte viability [2]: > 12.5 µM | IC50 of gametocyte viability [3]: > 12.5 µM | IC50 of gametocyte viability [4]: > 12.5 µM | IC50 of gametocyte viability [5]: > 12.5 µM
